Blank lines part the entries; values can stand above or below the molecule they belong to.
How the values were obtained:
[1] = test system: breast adenocarcinoma (MCF-7) cell line; experiment: MTT cell viability assay, 72 h, MCF-7; format: cell-based, human; details: for SI (selectivity index): GI50(184B5)/GI50(MCF-7); for TGI / LD50 / GI50: MCF-7, 72 h, MTT; for TGI: concentration that completely inhibits cell growth; for LD50: concentration that kills 50% of cells; for GI50: concentration that inhibits 50% cell growth
Procedure: (§1) The novel synthetic compounds VA2J, VA4J, VA6G, VA6H, VA6I and VA6J were tested in breast adenocarcinoma (MCF-7) and non-malignant mammary-gland-derived (184B5) cell lines to be able to establish their potency and selectivity. The reference drug used was methylseleninic acid (MSA) as a Se-containing structure with promising in vitro and in vivo results against different tumour types. Results are expressed as the concentration that inhibits 50% cell growth (GI50), the concentration that inhibits completely cell growth (TGI) and the concentration that kills 50% of cells (LD50). The selectivity index (SI) is calculated as GI50(184B5)/GI50(MCF-7).
(§2) Cell lines were purchased from the American Type Culture Collection (ATCC, Barcelona, Spain). MCF7 cell lines were grown in Roswell Park Memorial Institute (RPMI) medium (Gibco, Madrid, Spain) supplemented with 10% fetal bovine serum (FBS; Gibco), 100 units/mL penicillin and […] (Gibco, Madrid, Spain). 184B5 cells were grown in DMEM/F12 medium supplemented with 5% FBS, 1x ITS (Lonza, Barcelona, Spain), 100 nM hydrocortisone (Sigma Aldrich, Madrid, Spain), 2 mM sodium pyruvate (Lonza), 20 ng/mL EGF (Sigma Aldrich, Madrid, Spain), 0.3 nM trans-retinoic acid (Sigma-Aldrich) 100 units/mL penicillin and […]. Cells were maintained at 37 °C and 5% CO2.
(§3) Compounds were dissolved in DMSO at a concentration of 0.01 M. Serial dilutions were prepared with non-supplemented medium. The cytotoxic effect of each compound was tested at eight different concentrations ranging between 0.01 and 100 µM.
(§4) A total of 10^4 cells/well in 96 well-plates were treated with either DMSO or increasing concentrations of the corresponding compound for 72 h and cell viability was determined using the MTT (3-(4,5-dimethylthiazol-2-yl)-2,5-diphenyltetrazolium bromide) (Sigma Aldrich, Madrid, Spain) assay. Briefly, cells were incubated with 50 µL of MTT (2 mg/mL stock) for 4 h. The medium was then removed by aspiration and the formazan crystals were dissolved in 150 µL of DMSO. The absorbance was measured at 550 nm in a microplate reader (Sunrise, Tecan, Männedorf, Switzerland). […] Data were obtained from at least three independent experiments performed in quadruplicate.

[2] = test system: non-malignant mammary-gland-derived (184B5) cell line; experiment: MTT cell viability assay, 72 h, 184B5; format: cell-based; details: 184B5, 72 h; for GI50: Homo sapiens
Procedure: as §1, §2, §3, §4

[3] = Thermogravimetric (TG) analysis of thermal stability; format: physicochemical; details: for TG To (Tonset of thermal degradation): nitrogen, 50 to 350 °C; for TG decomposition or desolvation processes in the temperature range studied: range 100–135 °C for VA4J, 94–108 °C for VA6E
Procedure: The thermogravimetric (TG) studies were carried out with a Perkin–Elmer TGA-7 (Perkin Elmer, Inc. Watham, MA, USA) which was calibrated with alumel and nickel at 10 °C·min^−1. The calibration of the oven temperatures was carried out automatically and mass calibrated with a certified sample of 10 mg (ASTM E617, provided by Perkin Elmer, Inc. Watham, MA, USA). TG analyses were performed under a nitrogen atmosphere with a gas flow of 40 mL·min^−1, from 50 to 350 °C, at a heating rate of 10 °C·min^−1, using a sample of approximately 3 mg, in order to obtain the values of the Tonset and Tmax of the degradation process as well as any associated mass loss.

[4] = DSC successive melting-recrystallization cycles, polymorphic behaviour; format: physicochemical; parameters: key: I: Compounds that show a polymorphic phase transition into an amorphous or mainly amorphous solid form after a first melting–cooling scan; II: Compounds that change into a new polymorphic form with a different Tonset of fusion than the one observed at the first melting–recrystallization scan after cooling; III: These compounds show a fusion process without modifications in the thermal behaviour after an initial fusion–recrystallization cycle; IV: Compounds that show recrystallization or other types of phase transition of the original form into another crystalline one in the first heat scan; V: Compounds without fusion processes at the range of temperatures studied; *: fusion with decomposition; details: 10 °C/min
Procedure: To establish general polymorphic behaviours, samples of all the compounds synthetized (Figure 1) were exposed to successive cycles of melting–recrystallization using DSC. Calorimetric analyses were performed before the beginning of the degradation process (Table 6). […] This behaviour was shown by several compounds: VA1C, VA2E, VA8E, series H, VA6I, VA8J, VA6M and VA8M. DSC and PXRD results of compound VA7H are shown as supplementary material (Figures S1 and S2 and Table S1). • Behaviour II—Compounds that change into a new polymorphic form with a different Tonset of fusion than the one observed at the first melting–recrystallization scan after cooling. These compounds are VA7E and VA8O. DSC and PXRD results of compound VA7E are shown as supplementary material (Figures S3 and S4, Table S2). • Behaviour III—These compounds show a fusion process without modifications in the thermal behaviour after an initial fusion–recrystallization cycle. Consequently, there is no evidence of polymorphic behaviour. The compounds VA2C, VA2M, VA4J and VA5O belong to this group. DSC and PXRD results of compound VA2M are shown as supplementary material (Figures S5 and S6, Table S3). • Behaviour IV—Compounds that show recrystallization or other types of phase transition of the original form into another crystalline one in the first heat scan. In the successive cycles of melting–recrystallization, the new form may not alter its crystalline form or transit to another polymorphic form. Compounds VA6E, VA7J and VA7M show this behaviour. • Behaviour V—Compounds without fusion processes at the range of temperatures studied.
For calorimetric studies a Perkin–Elmer DSC diamond calibrated with indium and zinc (provided by Perkin–Elmer (Perkin Elmer, Inc. Watham, MA, USA) and fabricated according to guideline ISO35) at 10 °C·min^−1 and nitrogen flow of 20 mL·min^−1 was employed. The gas connected to the equipment was nitrogen with a purity of 99.999%. Calorimetric analyses were carried out in aluminium capsules for volatilities of 10 μL, at a heating rate of 10 °C·min^−1, using a sample of approximately 3 mg, in order to establish the Tonset, Tmax and the enthalpy of fusion ∆Hf.
The calorimetric analyses started with the study of the thermal behaviour of the compounds before the process of degradation in order to evidence the possible existence of polymorphism. For this preliminary study, samples of all the compounds were exposed to successive cycles of heating–cooling. All samples were heated from 50 °C to temperatures 15–20 °C below Tonset of the degradation process, in order to ensure that compounds were not degraded (Table 6). After melting the samples, they were left at room temperature for enough time to allow the compounds to recrystallize before the successive thermal process. Additional cycles of heating–cooling were performed if polymorphism was detected.

[5] = Stability after stress conditions by HPLC/UV-DAD; format: physicochemical; details: 0, 4 and 24 h; for Stability to oxidation: H2O2 3%; for Stability to acid hydrolysis: HCl 1 M; for Stability to basic (alkaline) hydrolysis: NaOH 0.1 M
Procedure: The stability of compounds VA4J (without polymorphic behaviour) and VA6E and VA7J (with polymorphic behaviour) was investigated after the application of diverse stress conditions: acid hydrolysis (HCl 1 M), basic hydrolysis (NaOH 0.1 M) and oxidation (H2O2 3%). Chromatographic studies using HPLC/UV-DAD were performed with this purpose.
Chromatographic studies were performed using an HPLC/UV-DAD (HP 1200, Agilent Technologies. Santa Clara, CA, USA) with a C18 column (Gemini-NX 150 × 4.6 mm, 5 µm) from Phenomenex (Phenomenex. Torrance, CA, USA). The mobile phase was a mixture of acetonitrile/water (80:20; v/v) for compound VA4J, (50:50; v/v) for VA6E and (80:20, 0.1% formic acid; v/v) for compound VA7J. The injection volume was 50 µL and the flow rate was 1 mL/min. Chromatography was performed at 35 °C. UV-DAD detection was established at λ = 254 nm.
For stability evaluation in stress conditions, working solutions of 47.6 µg/mL were prepared by diluting 20 µL of each standard solution in 200 µL of acetonitrile and 200 µL of (a) 1 M HCl, (b) 0.1 M NaOH and (c) 3% H2O2. Data were recorded at zero time and after 4 and 24 h of exposure.

[6] = test system: breast adenocarcinoma (MCF-7) cell line; parameters: method as in PMID 27487570; details: same methodology; cited from earlier work
[7] = test system: 1205Lu (melanoma), A549 (lung), DU145 (prostate), HCT116 (colon), PANC-1 (pancreas) and BxPC3 (pancreas); parameters: method as in PMID 26922233; details: all six cell lines, even at short time points; MTT conditions slightly different; cited from earlier work

SMILES: CSc1nc2ccccc2nc1SC [VA4J, 2,3-Bis(methylsulfanyl)quinoxaline]
SI (selectivity index) [1]: 51.25
TGI [1]: >100 µM
LD50 [1]: >100 µM
SI relative to MSA ([1]; SI of compound compared with SI of MSA): over 50 times
LD50 [2]: >100 µM
TGI [2]: >100 µM
GI50 [2]: 52.5 µM
TG To (Tonset of thermal degradation) ([3]; 10 °C/min): 197.42 °C
TG decomposition or desolvation processes in the temperature range studied [3]: can be excluded
DSC Behaviour (polymorphic/calorimetric behaviour) [4]: III
Stability to oxidation [5]: stable
Stability to acid hydrolysis [5]: stable
Stability to basic (alkaline) hydrolysis [5]: stable

TG To (Tonset of thermal degradation) ([3]; 10 °C/min): 184.1 °C
TG decomposition or desolvation processes in the temperature range studied [3]: can be excluded
DSC Behaviour (polymorphic/calorimetric behaviour) [4]: IV
Stability to basic (alkaline) hydrolysis [5]: degraded almost completely
SMILES: N#CSCc1cc2c(cc1Br)OCO2 [VA6E]
Stability to oxidation [5]: degradation product peaks were also detected
Stability to acid hydrolysis [5]: degradation product peaks were also detected
Selectivity relative to MSA [6]: fourteen times more selective than MSA

SMILES: N#CSCc1ccc2ccccc2n1 [VA6H, Quinolin-2-ylmethyl Thiocyanate]
SI (selectivity index) [1]: 3.25
GI50 ([1]; Homo sapiens, MCF7, 72 h): < 10 µM
TGI [1]: 14.83 µM
GI50 [1]: 8.53 µM
LD50 [1]: 24.18 µM
LD50 [2]: >100 µM
TGI [2]: 75.84 µM
GI50 [2]: 27.8 µM
TG To (Tonset of thermal degradation) ([3]; 10 °C/min): 139.1 °C
DSC Behaviour (polymorphic/calorimetric behaviour) [4]: I

SMILES: COc1cc2oc(=O)cc(CSC#N)c2cc1OC [VA6I, (6,7-Dimethoxy-2-oxo-2H-chromen-4-yl)methyl Thiocyanate]
SI (selectivity index) [1]: 0.50
TGI [1]: >100 µM
LD50 [1]: >100 µM
LD50 [2]: >100 µM
TGI [2]: >100 µM
GI50 [2]: 2.26 µM
TG To (Tonset of thermal degradation) ([3]; 10 °C/min): 246.9 °C
DSC Behaviour (polymorphic/calorimetric behaviour) [4]: I

SMILES: N#CSCc1nc2ccccc2nc1CSC#N [VA6J, Quinoxalin-2,3-diyldimethanediyl Bisthiocyanate]
SI (selectivity index) [1]: 2.15
GI50 ([1]; Homo sapiens, MCF7, 72 h): 18.5 µM
TGI [1]: 50.55 µM
LD50 [1]: 83.93 µM
LD50 [2]: 94.62 µM
TGI [2]: 69.80 µM
GI50 [2]: 39.8 µM
TG To (Tonset of thermal degradation) ([3]; 10 °C/min): 165.0 °C
DSC Behaviour (polymorphic/calorimetric behaviour) [4]: *

SMILES: N=C(N)[Se]Cc1nc2ccccc2nc1C[Se]C(=N)N [VA7J]
TG debromhidration process temperature ([3]; 10 °C/min): 173 °C
DSC Behaviour (polymorphic/calorimetric behaviour) [4]: IV
Stability to oxidation [5]: totally degraded
Stability to acid hydrolysis [5]: stable
Stability to basic (alkaline) hydrolysis [5]: only a minor degradation
IC50 [7]: < 10 µM

— paper PMC6152329, “Antitumoural Sulphur and Selenium Heteroaryl Compounds: Thermal Characterization and Stability Evaluation” (Molecules : A Journal of Synthetic Chemistry and Natural …, 2017)
